Test results: patent EP2607478A1, “Phenanthroline treated MSC” (Universiteit Twente, priority 2011, dated 2013)

System: MSCs
Test: Whole genome expression analysis (Illumina microarray) of treated MSCs
Assay type: cell-based, Human
Description: MSCs were seeded in T25 flasks at 5000 cells/cm^2 and allowed to attach overnight in proliferation medium. […] After 48 hours, RNA was isolated as described above. From 500 ng of RNA, cRNA was synthesized using the Illumina TotalPrep RNA amplification Kit (Ambion), according to the manufacturer's protocol and the quality of RNA and cRNA was verified on a Bioanalyzer 2100 (Agilent). Microarrays were performed using Illumina HT-12 v4 expression Beadchips, according to the manufacturer's protocol. Briefly, 750 ng of cRNA was hybridized on the array overnight after which the array was washed and blocked. Then, by addition of streptavidin Cy-3 a fluorescent signal was developed. Arrays were scanned on an Illumina iScan reader and raw intensity values were background corrected in GenomeStudio (Illumina). Further data processing and statistical testing were performed with R and Bioconductor statistical software (www.bioconductor.org), using package lumi. Raw intensity values were transformed using variance stabilization and a quantile normalization was performed. A linear modelling approach with empirical Bayesian methods, as implemented in Limma package (54), was applied for differential expression analysis of the resulting probe-level expression values. A gene list, containing only those genes with an absolute 1.5-fold change between different treatments, was uploaded to Ingenuity Pathway Analysis (IPA) software and used for core analysis. Pathways or networks with a p-value of 0.05 were considered statistically significant.

## c1cnc2c(c1)ccc1cccnc12 [PHE, 1, 10-phenanthroline]
ProbeID ILMN_1699651
  logFC(D142_PHE - D142_BAS) IL6: -2,31
ProbeID ILMN_1699772
  logFC(D142_PHE - D142_BAS) RRAGD: 3,13
ProbeID ILMN_1699980
  logFC(D142_PHE - D142_BAS) TSPAN18: -2,03
ProbeID ILMN_1700268, PHE vs BAS
  logFC(D142_PHE - D142_BAS) QPRT: -2,59
ProbeID ILMN_1701441, PHE vs BAS
  logFC(D142_PHE - D142_BAS) LPAR1: -2,35
ProbeID ILMN_1702363, PHE vs BAS
  logFC(D142_PHE - D142_BAS) SULF1: -2,90
ProbeID ILMN_1703123
  logFC(D142_PHE - D142_BAS) AXUD1: 2,51
ProbeID ILMN_1703330
  logFC(D142_PHE - D142_BAS) FEM1C: 2,53
ProbeID ILMN_1703558
  logFC(D142_PHE - D142_BAS) FHL3: -2,34
ProbeID ILMN_1704154
  logFC(D142_PHE - D142_BAS) TNFRSF19: -2,24
ProbeID ILMN_1704446
  logFC(D142_PHE - D142_BAS) SLC6A10P: 3,23
ProbeID ILMN_1704531
  logFC(D142_PHE - D142_BAS) PTGR1: 2,56
ProbeID ILMN_1705750, PHE vs BAS
  logFC(D142_PHE - D142_BAS) TGM2: -2,98
ProbeID ILMN_1706498
  logFC(D142_PHE - D142_BAS) DSE: -2,19
ProbeID ILMN_1707124
  logFC(D142_PHE - D142_BAS) TFPI: 2,04
ProbeID ILMN_1707342
  logFC(D142_PHE - D142_BAS) LRIG1: 2,82
ProbeID ILMN_1707727
  logFC(D142_PHE - D142_BAS) ANGPTL4: 7,28
ProbeID ILMN_1708486
  logFC(D142_PHE - D142_BAS) CNN2: -2,15
ProbeID ILMN_1708672
  logFC(D142_PHE - D142_BAS) ACAT2: -2,03
ProbeID ILMN_1708934
  logFC(D142_PHE - D142_BAS) ADM: 2,48
ProbeID ILMN_1709043
  logFC(D142_PHE - D142_BAS) C9orf46: -2,08
ProbeID ILMN_1711439
  logFC(D142_PHE - D142_BAS) EMILIN1: -2,30
ProbeID ILMN_1712684
  logFC(D142_PHE - D142_BAS) FAM20C: -2,12
ProbeID ILMN_1713499
  logFC(D142_PHE - D142_BAS) WISP1: -2,11
ProbeID ILMN_1714730
  logFC(D142_PHE - D142_BAS) UBE2C: -2,16
ProbeID ILMN_1714741
  logFC(D142_PHE - D142_BAS) LOC346887: 2,46
ProbeID ILMN_1715508, PHE vs BAS
  logFC(D142_PHE - D142_BAS) NNMT: -2,62
ProbeID ILMN_1716552
  logFC(D142_PHE - D142_BAS) ENAH: -2,13
ProbeID ILMN_1716608
  logFC(D142_PHE - D142_BAS) NGF: 2,06
ProbeID ILMN_1716687
  logFC(D142_PHE - D142_BAS) TPM1: -2,28
ProbeID ILMN_1716733
  logFC(D142_PHE - D142_BAS) MYOM2: 2,05
ProbeID ILMN_1717056
  logFC(D142_PHE - D142_BAS) TXNRD1: 2,75
ProbeID ILMN_1718866
  logFC(D142_PHE - D142_BAS) C5orf46: 3,15
ProbeID ILMN_1718961
  logFC(D142_PHE - D142_BAS) BNIP3L: 2,88
ProbeID ILMN_1719392, PHE vs BAS
  logFC(D142_PHE - D142_BAS) FH: -2,67
ProbeID ILMN_1719759, PHE vs BAS
  logFC(D142_PHE - D142_BAS) TNC: -3,17
ProbeID ILMN_1720373
  logFC(D142_PHE - D142_BAS) SLC7A5: 2,69
ProbeID ILMN_1720998
  logFC(D142_PHE - D142_BAS) CA12: 2,41
ProbeID ILMN_1722532
  logFC(D142_PHE - D142_BAS) JMJD1A: 3,45
ProbeID ILMN_1723486
  logFC(D142_PHE - D142_BAS) HK2: 2,90
ProbeID ILMN_1723912
  logFC(D142_PHE - D142_BAS) IFI44L: -2,15
ProbeID ILMN_1724658
  logFC(D142_PHE - D142_BAS) BNIP3: 3,47
ProbeID ILMN_1724700
  logFC(D142_PHE - D142_BAS) RIOK3: 2,40
ProbeID ILMN_1725090, PHE vs BAS
  logFC(D142_PHE - D142_BAS) CTHRC1: -2,95
ProbeID ILMN_1725139
  logFC(D142_PHE - D142_BAS) CA9: 3,69
ProbeID ILMN_1725241
  logFC(D142_PHE - D142_BAS) GSTK1: -2,02
ProbeID ILMN_1726456
  logFC(D142_PHE - D142_BAS) SLC3A2: 2,24
ProbeID ILMN_1726589
  logFC(D142_PHE - D142_BAS) CD248: -2,13
ProbeID ILMN_1727532, PHE vs BAS
  logFC(D142_PHE - D142_BAS) OLFML3: -3,25
ProbeID ILMN_1728047
  logFC(D142_PHE - D142_BAS) AKR1A1: -2,21
ProbeID ILMN_1728934, PHE vs BAS
  logFC(D142_PHE - D142_BAS) PRC1: -2,53
ProbeID ILMN_1729117
  logFC(D142_PHE - D142_BAS) COL5A2: -2,21
ProbeID ILMN_1729288
  logFC(D142_PHE - D142_BAS) C1QTNF6: -2,08
ProbeID ILMN_1731966
  logFC(D142_PHE - D142_BAS) LEPR: -2,03
ProbeID ILMN_1732612
  logFC(D142_PHE - D142_BAS) SHB: 2,06
ProbeID ILMN_1733094, PHE vs BAS
  logFC(D142_PHE - D142_BAS) STEAP1: -2,54
ProbeID ILMN_1733110
  logFC(D142_PHE - D142_BAS) RASSF7: 2,83
ProbeID ILMN_1733756, PHE vs BAS
  logFC(D142_PHE - D142_BAS) COL12A1: -3,95
ProbeID ILMN_1736670
  logFC(D142_PHE - D142_BAS) PPP1R3C: 2,44
ProbeID ILMN_1738116, PHE vs BAS
  logFC(D142_PHE - D142_BAS) TMEM119: -4,96
ProbeID ILMN_1738552
  logFC(D142_PHE - D142_BAS) SLC1A3: -2,18
ProbeID ILMN_1738742
  logFC(D142_PHE - D142_BAS) PLAT: 2,16
ProbeID ILMN_1739496, PHE vs BAS
  logFC(D142_PHE - D142_BAS) PRRX1: -2,36
ProbeID ILMN_1739942
  logFC(D142_PHE - D142_BAS) FAM117B: 2,48
ProbeID ILMN_1740407, PHE vs BAS
  logFC(D142_PHE - D142_BAS) CHSY3: -2,57
ProbeID ILMN_1741148
  logFC(D142_PHE - D142_BAS) ALDOA: 2,28
ProbeID ILMN_1741200
  logFC(D142_PHE - D142_BAS) RFX5: -2,04
ProbeID ILMN_1741356, PHE vs BAS
  logFC(D142_PHE - D142_BAS) PRICKLE1: -2,37
ProbeID ILMN_1744487, PHE vs BAS
  logFC(D142_PHE - D142_BAS) C1QTNF5: -2,59
ProbeID ILMN_1744963
  logFC(D142_PHE - D142_BAS) ERO1L: 3,84
ProbeID ILMN_1747016
  logFC(D142_PHE - D142_BAS) CEP55: -2,01
ProbeID ILMN_1747195
  logFC(D142_PHE - D142_BAS) PSMB8: -2,24
ProbeID ILMN_1748883
  logFC(D142_PHE - D142_BAS) CDKN2D: 2,14
ProbeID ILMN_1749838
  logFC(D142_PHE - D142_BAS) MZF1: 2,45
ProbeID ILMN_1749892
  logFC(D142_PHE - D142_BAS) EGLN1: 2,72
ProbeID ILMN_1750324
  logFC(D142_PHE - D142_BAS) IGFBP5: 2,34
ProbeID ILMN_1750912
  logFC(D142_PHE - D142_BAS) STXBP6: 2,42
ProbeID ILMN_1751120
  logFC(D142_PHE - D142_BAS) HIST1H4H: 2,86
ProbeID ILMN_1751228
  logFC(D142_PHE - D142_BAS) C20orf46: 2,17
ProbeID ILMN_1752226
  logFC(D142_PHE - D142_BAS) P2RY11: 2,23
ProbeID ILMN_1752510
  logFC(D142_PHE - D142_BAS) FAM13A: 3,25
ProbeID ILMN_1754969, PHE vs BAS
  logFC(D142_PHE - D142_BAS) LMCD1: -2,67
ProbeID ILMN_1755749
  logFC(D142_PHE - D142_BAS) PGK1: 2,85
ProbeID ILMN_1755974
  logFC(D142_PHE - D142_BAS) ALDOC: 2,83
ProbeID ILMN_1756417
  logFC(D142_PHE - D142_BAS) ANKRD37: 4,25
ProbeID ILMN_1756572, PHE vs BAS
  logFC(D142_PHE - D142_BAS) COQ2: -2,49
ProbeID ILMN_1756573
  logFC(D142_PHE - D142_BAS) NDUFA4L2: 5,61
ProbeID ILMN_1756992
  logFC(D142_PHE - D142_BAS) MUC1: 2,56
ProbeID ILMN_1757877
  logFC(D142_PHE - D142_BAS) HCFC1R1: 2,05
ProbeID ILMN_1758164
  logFC(D142_PHE - D142_BAS) STC1: 4,35
ProbeID ILMN_1758623
  logFC(D142_PHE - D142_BAS) HIST1H2BD: 3,29
ProbeID ILMN_1758626
  logFC(D142_PHE - D142_BAS) IDS: 2,05
ProbeID ILMN_1758672
  logFC(D142_PHE - D142_BAS) FAM107B: 2,44
